Structures can show the parent of a compound that is named as a salt. Where two headings read alike, the source gives them in different places.
Key:
[1] = Human exposure (AUC) used for dose extrapolation; conditions: in vivo, humans, dose of 7.5 mg
Excerpt: (§1) Extrapolation to the corresponding dosage in humans was achieved while adjusting for the relative AUC for each.

rat brain = test: Rat BOLD fMRI study of resting state functional connectivity; format: in vivo
Procedure: BOLD fMRI was used to measure drug-related changes in resting state functional connectivity across the whole brain.
Adult male Wistar rats (275±25 g) were housed separately and maintained on a 12-h light, 12-h dark schedule. Food and water was provided ad libitum. Animals were cared for in accordance with the guidelines published in the Guide for the Care and Use of Laboratory Animals (National Institutes of Health Publications No. 85-23, Revised 1985). Animal body weights were measured approximately 24 hours before Day −3, and on Study Days 3 and 6.
Pioglitazone HCl (PIO) was dissolved in 0.5 mol/L citric acid (CA) to yield a stock solution at a concentration of 0.32 mg/10 mL/kg. Other dosages were prepared by appropriate dilution of the stock solution with 0.5 mol/L CA to yield dose volumes of 10 mL/kg. Control rats received the vehicle at 10 mL/kg. Dose concentrations were based on the weight of the test article as supplied (i.e., as the HCl salt), with the dose adjusted to the most recent body weight of the animal. Daily dosing with PIO in solution was by oral gavage at approximately the same time every day. Animals were anesthetized lightly with isoflurane immediately beforehand to facilitate dosing.
All animals used in the imaging studies were acclimated to the MRI holding device by being placed in it for 15-90 minutes daily for at least 7 days, as previously described (Zhang et al. 2010 J Neurosci Methods 189: 186-196; Liang et al. 2011 J Neurosci 31: 3776-3783).
After the acclimation period, animals were assigned to 1 of 7 treatment arms matched for mean body weights (see Table 1). Dosing occurred once daily, at approximately the same time every day. All animals were imaged at Baseline (Study Day −3), approximately 2.5 to 3 h after dosing with vehicle. Dosing began 3 days later (Study Day 1). On this day, all animals were administered either vehicle (CA) or PIO depending on their group assignment. On Study Day 2, one vehicle group and one group treated with PIO at 0.08 mg/kg/day (Acute Arm) were imaged approximately 2.5 to 3 h after dosing. For all groups, dosing continued for seven days total. On Study Day 7, all rats were imaged approximately 2.5 to 3 h after administration of the final dose.
Animal preparation activities related to imaging were initiated to insure that the imaging itself occurred approximately 2.5 to 3 h after dosing. The animals were prepared for positioning in the restraint under isoflurane anesthesia as previously described (Zhang et al. 2010, supra). […] Imaging was conducted on awake animals.
All MR experiments were conducted using a 4.7 T/40 cm horizontal magnet (Oxford, UK) interfaced with a BiospecBruker console (Bruker, Germany) and equipped with a 20 G/cm magnetic field gradient. A dual ^1H radiofrequency (RF) coil configuration (Insight Neurolmaging Systems, Worcester, Mass.) consisting of a volume coil for exciting the water proton spins and a surface coil for receiving MRI signal was used; the volume and surface coils were actively tuned and detuned to prevent mutual coil coupling. This dual-coil configuration allowed for sufficient RF field homogeneity in the rat brain for RF transmission, while preserving the advantage of higher signal-to-noise ratio (SNR) provided by the smaller reception coil.
Anatomical images were acquired first using a multi-slice fast spin-echo sequence (RARE) with the parameters: repetition time (TR)=2125 ms; RARE factor=8; effective echo time (TE)=50 ms; matrix size=256×256; field of view (FOV)=3.2×3.2 cm^2; slice number=18; slice thickness=1 mm; n=8.

in vivo = conditions: rat
Excerpt: as §1

[2] = system: diabetic patients with AD or mild cognitive impairment; conditions: placebo-controlled clinical trials; cited from earlier work
[3] = system: neuronal insulin resistance; conditions: cited from earlier work
[4] = system: cell death due to glucose deprivation; conditions: cited from earlier work
[5] = system: transgenic mouse models of AD, and mouse and rat models of neurodegeneration or brain injury; conditions: in vivo; cited from earlier work

With `CCc1ccc(CCOc2ccc(CC3SC(=O)NC3=O)cc2)nc1` (stereo not shown) [PIO, Pioglitazone HCl] the AUC [1] was 2800 ng·h/mL, the “time at which functional changes were induced” value (rat brain; 0.08 mg/kg/day, earliest time point assayed after initiation of treatment) was at most 24 h and the “fMRI signal relative to lower dosages” value (rat brain; 0.32 mg/kg/day, appearance in FIG. 1, to be confirmed) was “diminished signal”. The “dose that induced functional changes at earliest time point” value (rat brain; 24 hours after initiation of treatment) was at least 0.08 mg/kg/day, the “dose that induces change in metabolism in deep subcortical structure of the rat brain (fMRI)” value (rat brain; group-averaged fMRI signal, treatment day 7, relative to vehicle control) was at least 0.04 mg/kg/day and the “blood brain barrier penetration” value (rat brain; low-dose PIO, administered orally, concluded from fMRI changes) was “penetrates the blood brain barrier”. The “dose that induces changes in multiple brain regions” value (rat brain; oral, relative to vehicle control) was at least 0.04 mg/kg/day, the AUC (in vivo; Wistar, po, 0.04 mg/kg/day) was 570 ng·h/mL and the AUC (in vivo; Wistar, po, 0.08 mg/kg/day) was 1140 ng·h/mL. It also gave an AUC (in vivo; Wistar, po, 0.16 mg/kg/day) of 2280 ng·h/mL, an AUC (in vivo; Wistar, po, 0.32 mg/kg/day) of 4550 ng·h/mL and an AUC (in vivo; 0.5 mg/kg/day) of 7110 ng·h/mL.

In the case of `CCc1ccc(CCOc2ccc(CC3SC(=O)NC3=O)cc2)nc1` (stereo not shown) [pioglitazone, Pioglitazone], the “change in metabolism in the central region of the deep cortical structures of the brain (fMRI)” value (rat brain; even the lowest doses, orally-administered, immediate release) is listed as “produce a change in metabolism”, the cognition [2] is listed as “improved” and the hyperinsulinemia [2] is listed as “improved”. The “regional cerebral blood flow” value [2] was “improved regional cerebral blood flow”, the neuronal insulin resistance [3] was “improves neuronal insulin resistance” and the “concentration that significantly reduces cell death due to glucose deprivation” value [4] was at least 1 nM. The “expression of NRF1, TFAM1 and UCP-2” value [4] was “increases expression”, the “reported effects in animal models (amyloid plaque burden, brain glucose utilization, inflammation, oxidative stress, memory and learning deficits, neurogenesis)” value [5] was “Beneficial effects” and the brain concentration (0.5 mg dose) was “approximately 6.7 nM”. For the same molecule, the serum concentration (0.5 mg dose) was “approximately 33.3 nM”, the brain concentration (1.5 mg dose) was “approximately 20 nM” and the serum concentration (1.5 mg dose) was “approximately 100 nM”. For the same molecule, the brain concentration (4.5 mg dose) was “approximately 50 nM”, the serum concentration (4.5 mg dose) was “approximately 300 nM” and the brain concentration (9 mg dose) was “approximately 120 nM”. The serum concentration (9 mg dose) was “approximately 600 nM”.

Reference: patent US11179375B2, “Methods and drug products for treating Alzheimer's disease” (Zinfandel Pharmaceuticals, Inc., priority 2011, dated 2021)
